Data set [1] in a line: Glucuronide kinetics assay (release of β-lapachone after β-glucuronide deprotection). The format is physicochemical. As to conditions: pH 7, 37° C., after β-glucuronide deprotection; first experiments. Here is the method: (§1) Glucuronide prodrug (37a, b, c, d) was dissolved in DMSO to a concentration of 10 mM. A 100 mM stock solution of warfarin in DMSO was also prepared. To obtain deprotected para-hydroxybenzyl ketol species, the glucuronide stock solution was dissolved in PBS with 16.7% DMF to a concentration of 1.7 mM. 15 μL of a stock solution of R-glucuronidase from E. coli K-12 (Roche #03707580001, 140 U/mL) was added to 900 μL of this stock and incubated for 20 min at 37° C. 15 μL of a 100 mM stock of warfarin internal standard in DMSO was added. Reactions were then set up immediately. For a reaction, 30 μL of the amino-benzyl ketol/standard stock was added to 195 μL of citrate-phosphate buffer at the specified pH. Test samples were incubated at 37° C. with shaking. At the recorded time points, 20 μL aliquots of the reactions were analysed by HPLC (254 nm, Agilent 1260 Infinity). HPLC conditions: column Agilent InfinityLab Poroshell 120 SB—C18 2.7 μm, 50×4.6 mm; solvent system A=H2O+0.1% TFA, B=acetonitrile+0.1% TFA; flow=1 mL/min. Gradient: t=0-1 min 0% B, t=1-2 min 0-30% B, t=2-17 min 30-40% B, t=17-17.1 min 40-100% B, t=17.1-18 min 100% B, t=18-23 min 0% B. Relative peak area represents raw peak area (mAU*s) normalized to raw peak area of the warfarin internal standard. Values recorded are averages of three independent reactions and error bars display standard error of the mean. Values were fitted to first-order kinetics using GraphPad Prism 9 software. A positive control experiment was performed under identical conditions with known substrate 4-nitrophenyl-β-D-glucuronide (Sigma Aldrich) to confirm enzyme activity.

Data set [2] can be described thus: Stability of glucuronide prodrug to incubation at pH 7.4 at 37° C. As to conditions: pH 7.4, 37° C., 6 days; no β-lapachone observed. The format is physicochemical. Here is the method: An experiment testing the stability of compound 37a to incubation at pH 7.4 at 37° C. was also performed.
For the next data set, the target named is T1, β-glucuronidase (Escherichia coli, UniProt P05804).
T1 construct: purchased Roche 03707580001
Kind of data set: Incubation with β-glucuronidase (sugar deprotection). In kind it is biochemical, E. coli K-12. As to conditions: pH 7.4, 37° C. Here is the method:
as §1, with “Values were fitted to first-order kinetics using GraphPad Prism 9 software. A positive control experiment was performed under identical conditions with known substrate 4-nitrophenyl-β-D-glucuronide (Sigma Aldrich) to confirm enzyme activity.” left out

In a further data set the test system is range of cell lines. The experiment in a line: Toxicity of Gluc-PHB-BL against a range of cell lines with and without added β-glucuronidase. The format is cell-based. The method, then:
(§2) Assays assessing cytotoxicity of β-lapachone and derivatives were performed by CellTiter-Blue assay (Promega) according to the manufacturer's instructions. Briefly, adherent cancer-cell lines were plated at 20,000 cells/well in 96 well plates or suspension cell lines were plated at a concentration of 2×10^5 cells/mL in 24 well plates. Compound stocks in media were made by dilution of DMSO stocks containing the compound of interest to obtain a final in-plate DMSO concentration of only 0.1%. Incubation was performed for 48 h. Following incubation, media was replaced with media containing CellTiter-Blue (Promega) in 1:10 dilution and the plates were incubated for 1.5-4 h. The fluorescence of the plates was recorded (excitation 555 nm, emission 585 nm, MiniMax i3x Reader, Molecular Devices).
(§3) Cell viability was calculated by division of the fluorescence intensity of treated wells by that of the calculated average fluorescence intensity of replicate negative control wells containing cells with 0.1% DMSO only. Values and reported error bars represent the mean and standard error of the mean of three triplicate repeats for each concentration tested. IC50 values were calculated using GraphPad Prism 8 software.
(§4) The potential of compound 37a, glucuronide-PHB-BL, as a prodrug was investigated. As discussed above, at physiological pH the compound has a relatively slow-release rate. Toxicity of Gluc-PHB-BL 37a was tested against a range of cell lines with and without added β-glucuronidase. Addition of the enzyme mimics conditions of the solid tumour environment.

A further data set deals with HeLa. Kind of data set: Toxicity with/without β-glucuronidase, HeLa. In kind it is cell-based. Here is the method: as §2, §3, §4
A further data set concerns SkBr-3. The experiment in a line: Toxicity with/without β-glucuronidase, SkBr-3. The format is cell-based. Here is the method: as §2, §3, §4
A further data set has as its system HEK-293T. Kind of data set: Toxicity with/without β-glucuronidase, HEK-293T. In kind it is cell-based. The method, then:
as §2, §3, §4

In another data set the test system is HL-60. The experiment in a line: Toxicity with/without β-glucuronidase, HL-60. In kind it is cell-based. Here is the method: as §2, §3, §4
For a further data set, the system named is MOLM-13. The experiment in a line: Toxicity with/without β-glucuronidase, MOLM-13. The format is cell-based. Here is the method: as §2, §3, §4
Data set [3] deals with Panc-1 pancreatic cancer cell line. The experiment in a line: CellTiter Glo viability assay, Panc-1. In kind it is cell-based. The method, then: (§5) For CellTiter Glo viability assays, 10,000 cells per well were plated on Day 1 and were allowed to adhere to the plate surface for 24 hours. Optimized concentration ranges of prodrugs were determined and made via serial dilution. […] Cells were incubated with compound for 48 hours and viability was assessed on Day 4 using the CellTiter Glo Viability assay which measures metabolically active cells by quantifying the amount of ATP present.
(§6) Panc-1 cells were obtained from Tony Kouzarides' lab in the Gurdon Institute at the University of Cambridge and put into culture at passage 10 containing DMEM media (Gibco) supplemented with 1% Pen-Strep antibiotic (Gibco), 1% L-glutamine, and 10% fetal bovine serum (FBS, sterile-filtered). Aspc-1 cells were bought commercially from the American Type Culture Collection (ATCC) and put into culture containing RPMI 1640 media (Gibco) supplemented with 1% Pen-Strep antibiotic (Gibco), 1% L-glutamine, and 20% fetal bovine serum (FBS, sterile-filtered). All cell lines were started at passage 10 and passaged every 3 days by centrifuging at 1000 rpm for 4 minutes.

Data set [4] deals with Aspc-1 pancreatic cancer cell line. Kind of data set: CellTiter Glo viability assay, Aspc-1. In kind it is cell-based. The method, then: as §5, §6
On the technique in general: ATP-based viability assays read luminescence as a measure of living cells.

Where [5] appears, read: Homo sapiens, read-out: IC50 Gluc-PHB-BL 37a.

Usually IC50 stands for the point on the concentration scale where inhibition reaches its midpoint.

T1 sequence (P05804 whole entry): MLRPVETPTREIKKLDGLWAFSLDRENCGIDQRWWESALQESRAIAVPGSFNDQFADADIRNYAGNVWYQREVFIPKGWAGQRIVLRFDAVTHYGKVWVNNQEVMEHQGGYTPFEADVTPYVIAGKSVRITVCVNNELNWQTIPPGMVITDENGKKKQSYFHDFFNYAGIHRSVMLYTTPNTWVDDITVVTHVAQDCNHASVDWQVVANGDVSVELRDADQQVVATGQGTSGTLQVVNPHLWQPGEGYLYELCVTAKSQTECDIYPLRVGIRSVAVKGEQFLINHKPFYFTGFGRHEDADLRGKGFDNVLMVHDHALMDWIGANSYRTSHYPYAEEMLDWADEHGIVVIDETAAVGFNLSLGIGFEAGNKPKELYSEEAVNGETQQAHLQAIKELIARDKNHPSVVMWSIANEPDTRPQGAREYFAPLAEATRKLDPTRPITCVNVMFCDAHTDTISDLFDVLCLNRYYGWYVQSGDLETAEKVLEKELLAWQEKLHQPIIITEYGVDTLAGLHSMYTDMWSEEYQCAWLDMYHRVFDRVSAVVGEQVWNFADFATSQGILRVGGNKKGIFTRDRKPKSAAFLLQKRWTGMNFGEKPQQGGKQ

On to `CC1(C)CCC2=C(O1)c1ccccc1C(O)(Cc1ccc(O[C@@H]3O[C@H](C(=O)O)[C@@H](O)[C@H](O)[C@H]3O)cc1)C2=O` (stereo partly drawn) [Compound 37a, (2S,3S,4S,5R,6S)-3,4,5-trihydroxy-6-(4-((6-hydroxy-2,2-dimethyl-5-oxo-3,4,5,6-tetrahydro-2H-benzo[h]chromen-6-yl)methyl)phenoxy)tetrahydro-2H-pyran-2-carboxylic acid], for which the “release rate of β-lapachone, kobs” value in [1] was found to be 1.09e-06 s⁻¹. In [2], the stability to incubation entry was “completely stable”. Also, the sugar deprotection reaction entry at β-glucuronidase was “rapid”. Further, the “toxicity without added β-glucuronidase” value in the data set on range of cell lines (concentrations up to 100 μM, apart from HEK-293T) was “not seen”; with HEK-293T (up to 100 μM), “low toxicity”. The “times less toxic than β-lapachone 1 (comparison of estimated IC50)” value with range of cell lines (treated with β-glucuronidase, 48 h) is on record as 3.5-9.7 times. Also, the “IC50 (37a)/ IC50 (1)” value in the data set with HeLa is on record as 9.74; in the data set on SkBr-3 (SkBr-3) it was 8.73; in the data set with HEK-293T, 7.18; in the data set with HL-60 (HL-60), 3.51; with MOLM-13 (MOLM-13), 6.50. Besides, the half-inhibitory concentration (IC50) came out at 41.5 µM in the data set with HeLa (setting [5]); 24 µM in the data set with SkBr-3 (Homo sapiens, SK-BR-3, read-out: IC50 Gluc-PHB-BL 37a); 20.9 µM with HEK-293T (setting [5]); 15.2 µM with HL-60 (Homo sapiens, HL-60, read-out: IC50 Gluc-PHB-BL 37a); 78.6 µM with MOLM-13 (Homo sapiens, MOLM-13, read-out: IC50 Gluc-PHB-BL 37a); 10.5 µM in data set [3] (Homo sapiens, PANC-1, 48 h). In data set [4] (Homo sapiens, ASPC1, 48 h), this compound gave an IC50 of 17.4 µM. For the same compound, the “toxicity without the β-glucuronidase enzyme” value in data set [3] (Panc-1, up to 100 μM) is “no toxicity”; in data set [4] (Aspc-1, up to 100 μM) it was “no toxicity”.

The values above are taken from patent publication US20250170252A1, “QUINONE PROTECTED FORMS AND CONJUGATES” (CAMBRIDGE ENTERPRISE LIMITED, priority 2022, published 2025).
